Entries after “also recorded” stand apart in the source; their conditions may differ.
How the values were obtained:
Format in all cases: cell-based
ISRE = experiment: Measurement of ISRE activity in ISRE-bla THP-1 cells (FRET, IFN-α as primary stimulus); conditions: for activity at 5 µM / ISRE % Activation: compound 5 μM + IFN-α 100 U/mL, 16 hours, two point normalized: compound 1 + IFN-α = 200%, IFN-α = 100%, mean; for activity at 5 µM: read-out: ISRE % Activation
How it was run: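 Cells at 5×10^4/well in RPMI with 10% dialyzed FBS, treated with compound at 5 μM (0.05% DMSO) plus IFN-α at 100 U/mL (final) for 16 h. CCF4-AM substrate added for 3 h at room temperature. Background-subtracted 465/535 nm emission ratio, 2-point normalized: IFN-α alone 100%, compound 1+IFN-α 200%.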

NF-κB and ISRE = NF-κB and ISRE reporter assays (primary screens), statements in words for both assays; conditions: with LPS or IFN-α as primary stimulus, compared to compound 1
Procedure: THP1-Blue™ NF-κB cells were plated in 96-well plates at 10^5 cells/well in 100 μl RPMI supplemented with 10% fetal bovine serum (FBS, Omega Scientific, Inc., Tarzana, Calif.), 100 U/mL penicillin, 100 μg/ml streptomycin (Thermo Fisher Scientific) and Normocin (Invivogen). LPS was prepared in assay medium at a concentration of 20 μg/mL. Tested compounds were dissolved in DMSO at 1 mM as a stock solution and were further diluted in the LPS solution to a final concentration of 10 μM. 100 μL of this solution was then transferred to the plated cells to obtain a final concentration of LPS at 10 μg/mL and compound at 5 μM ([…]). The culture supernatants were harvested after a 20 hour incubation period, SEAP activity in the culture supernatants was determined by a colorimetric assay using QuantiBlue (Invivogen). Plate absorbance was read at 630 nm using a Tecan Infinite M200 plate reader (Männedorf, Switzerland). The SEAP concentration was directly proportional to NF-κB activity, which was 2-point normalized to yield activity of compound 1+LPS as 200% and activity for LPS as 100%.
ISRE-bla THP-1 cells were plated in 96-well plates at 5×10^4 cells/well in 50 μl RPMI supplemented with 10% dialyzed FBS (Atlanta Biologicals, Inc., GA), 0.1 mM nonessential amino acids, 1 mM sodium pyruvate, 100 U/mL penicillin and 100 μg/ml streptomycin. Type I IFN-α (R&D Systems, #11200-2) solution was prepared in assay medium at a concentration of 200 U/mL Tested compounds were dissolved in DMSO at 1 mM and were further diluted in the IFN-α solution to a final concentration of 10 μM. 50 μL of this solution was then transferred to the plated cells to obtain a final concentration of IFN-α at 100 U/mL and compound at 5 μM ([…]), The cells were incubated for 16 hours, after which 20 μL of 6×LiveBLAzer™ FRET B/G Substrate (CCF4-AM) mixture (prepared according to the manufacturer's instructions) was added to each well, Plates were incubated at room temperature in the dark for 3 hours. Fluorescence was measured on a Tecan Infinite M200 plate reader at an excitation wavelength of 405 nm, and emission wavelengths of 465 nm and 535 nm. Background values (cell free wells at the same fluorescence wavelength) were subtracted from the raw fluorescence intensity values and the emission ratios were calculated as the ratio of background subtracted fluorescence intensities at 465 nm to background subtracted fluorescence intensities at 535 nm. The ISRE activity values for these compounds were 2-point normalized to yield activity of compound 1+IFN-α as 200% and activity for IFN-α as 100%.
Measurement of NF-κB Activation Using THP1-Blue NF-κB Cells. THP1-Blue NF-κB cells were plated in 96-well plates at 10^5 cells/well in 100 μL of RPMI supplemented with 10% fetal bovine serum (FBS, Omega Scientific, Inc., Tarzana, Calif.), 100 U/mL penicillin, 100 μg/mL streptomycin (Thermo Fisher Scientific), and Normocin (Invivogen). LPS was prepared in assay medium at a concentration of 20 μg/mL. Tested compounds were dissolved in DMSO at 1 mM as a stock solution and were further diluted in the LPS solution to a final concentration of 10 μM. 100 μL of this solution was then transferred to the plated cells to obtain a final concentration of LPS at 10 μg/mL and compound at 5 μM ([…]). The culture supernatants were harvested after a 20 hours incubation period. SEAP activity in the culture supernatants was determined by a colorimetric assay using QuantiBlue (Invivogen). Plate absorbance was read at 630 nm using a Tecan Infinite M200 plate reader (Mannedorf, Switzerland). The SEAP concentration was directly proportional to NF-κB activity, which was two-point normalized to yield activity of compound 1+LPS as 200% and activity for LPS as 100%.
Measurement of ISRE Activity in ISRE-bla THP-1 Cells. […]

NF-κB = experiment: Measurement of NF-κB activation using THP1-Blue NF-κB cells (SEAP reporter, LPS as primary stimulus); conditions: for activity at 5 µM / NF-κB % Activation: compound 5 μM + LPS, 20 hour incubation, two point normalized: compound 1 + LPS = 200%, LPS = 100%, mean
How it was run: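 THP1-Blue NF-κB cells (10^5/well, RPMI + 10% FBS) were co-treated with LPS 10 μg/mL and compound 5 μM (final, […]) for 20 h. Supernatant SEAP was read by QuantiBlue colorimetry at 630 nm. Two-point normalization set LPS alone to 100% and compound 1+LPS to 200%.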

THP-1 cells = experiment: Cell viability assay (MTT); conditions: for MTT % Viability: compound 5 μM, 18 hours incubation, normalized to DMSO as 100%, mean
How it was run: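 Cells at 10^5/well in RPMI with 10% FBS were exposed to compound at 5 μM final (0.05% DMSO) for 18 h. MTT (0.5 mg/mL) then added for 4-6 h, cells lysed overnight in SDS/HCl, absorbance read at 570 nm against 650 nm reference.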

| EC50 (ISRE; Homo sapiens, THP-1, dose response in the presence of IFN-α) | EC50 (NF-κB; dose response in the presence of LPS) | Compound | activity at 5 µM (ISRE; Homo sapiens, THP-1) | activity in NF-κB and ISRE assays (in words) (NF-κB and ISRE) | activity at 5 µM (NF-κB) | MTT % Viability (THP-1 cells) | toxicity in MTT assays (in words) (THP-1 cells; 5 μM) | ISRE % Activation (ISRE) | NF-κB % Activation (NF-κB) | ISRE activity (in words) (ISRE; with IFN-α) | NF-κB activity (in words) (NF-κB; with LPS) | activity in NF-κB and ISRE assays (in words) (NF-κB and ISRE; hydrochloride) |
| --- | --- | --- | --- | --- | --- | --- | --- | --- | --- | --- | --- | --- |
| – | – | C#CCOCCOCCOCCN(c1cc(OC)c(Cl)cc1OC)S(=O)(=O)c1ccc(OCC)cc1 [Compound 45, N-(4-chloro-2,5-dimethoxyphenyl)-4-ethoxy-N-(2-(2-(2-(prop-2-yn-1-yloxy)ethoxy)ethoxy)ethyl)benzenesulfonamide] | 130% | too long to retain activity | 107% | 73.7% | – | – | – | – | – | – |
| – | – | CCOc1ccc(S(=O)(=O)N(Cc2ccccc2)c2cc(OC)c(Cl)cc2OC)cc1 [Compound 46, N-benzyl-N-(4-chloro-2,5-dimethoxyphenyl)-4-ethoxybenzenesulfonamide] | 159% | potent analogs | 181% | 71.7% | – | – | – | – | – | – |
| – | – | CCOc1ccc(S(=O)(=O)N(CCc2ccccc2)c2cc(OC)c(Cl)cc2OC)cc1 [Compound 47, N-(4-chloro-2,5-dimethoxyphenyl)-4-ethoxy-N-phenethylbenzenesulfonamide] | 141% | potent analogs | 131% | 44% | somewhat higher toxicity | – | – | – | – | – |
| – | – | CCOC(=O)CN(c1cc(OC)c(Cl)cc1OC)S(=O)(=O)c1ccc(OCC)cc1 [Compound 49, Ethyl N-(4-chloro-2,5-dimethoxyphenyl)-N-((4-ethoxyphenyl)sulfonyl)glycinate] | 184% | retained dual NF-κB and ISRE activities | 202% | 81.4% | – | – | – | – | – | – |
| – | – | CCOc1ccc(S(=O)(=O)N(CCCO)c2cc(OC)c(Cl)cc2OC)cc1 [Compound 51, N-(4-chloro-2,5-dimethoxyphenyl)-4-ethoxy-N-(3-hydroxypropyl) benzenesulfonamide] | – | retained activity in both the assays | – | 68.5% | – | 178% | 219% | – | – | – |
| – | – | CCOc1ccc(S(=O)(=O)N(CCCNC(=O)OC(C)(C)C)c2cc(OC)c(Cl)cc2OC)cc1 [Compound 52, tert-Butyl (3-((N-(4-Chloro-2,5-dimethoxyphenyl)-4-ethoxyphenyl)sulfonamido)propyl)carbamate] | – | reduction in activity | – | 75.6% | – | 140% | 134% | – | – | – |
| – | – | CCNC(=O)CCCN(c1cc(OC)c(Cl)cc1OC)S(=O)(=O)c1ccc(OCC)cc1 [Compound 54, 4-((N-(4-chloro-2,5-dimethoxyphenyl)-4-ethoxyphenyl)sulfonamido)-N-ethylbutanamide] | – | retained activity | – | 78.2% | – | 137% | 206% | reduction in ISRE activity | retaining the NF-κB activity | – |
| 3.04 µM | 3.32 µM | CCOc1ccc(S(=O)(=O)N(CCCN)c2cc(OC)c(Cl)cc2OC)cc1.Cl [Compound 55, N-(3-aminopropyl)-N-(4-chloro-2,5-dimethoxyphenyl)-4-ethoxybenzenesulfonamide hydrochloride] | 182% | – | 189% | 71.0% | – | – | – | – | – | recovered; also recorded: less potent than compound 1; also recorded: retained activity even though slightly attenuated |
| – | – | CCOc1ccc(S(=O)(=O)N(CCCNC(=O)CCCCCNC(=O)c2ccc3c(c2)C(=O)OC32c3ccc(O)cc3Oc3cc(O)ccc32)c2cc(OC)c(Cl)cc2OC)cc1 [Compound 56, N-(6-((3-((N-(4-chloro-2,5-dimethoxyphenyl)-4-ethoxyphenyl)sulfonamido)propyl)amino)-6-oxohexyl)-3′,6′-dihydroxy-3-oxo-3H-spiro[isobenzofuran-1,9′-xanthene]-5-carboxamide] | – | completely inactive | – | 98.1% | – | 96% | 100% | – | – | – |
| – | – | CCOc1ccc(S(=O)(=O)N(CCCNC(=O)CCCC[C@H]2SC[C@H]3NC(=O)N[C@H]32)c2cc(OC)c(Cl)cc2OC)cc1 [Compound 58, N-(3-((N-(4-chloro-2,5-dimethoxyphenyl)-4-ethoxyphenyl)sulfonamido)propyl)-5-((3aR,4R,6aS)-2-oxohexahydro-1H-thieno[3,4-d]imidazol-4-yl)pentanamide] | – | equipotent to compound 1 | – | 69.6% | – | 175% | 195% | – | – | – |
| – | – | C#CCN(c1cc(OC)c(N=[N+]=[N-])cc1OC)S(=O)(=O)c1ccc(OCC)cc1 [Compound 62, N-(4-azido-2,5-dimethoxyphenyl)-4-ethoxy-N-(prop-2-yn-1-yl) benzenesulfonamide] | – | very potent | – | 73.4% | – | 182% | 217% | – | – | – |
| – | – | CCOc1ccc(S(=O)(=O)N(CCCNC(=O)CCCC[C@H]2SC[C@H]3NC(=O)N[C@H]32)c2cc(OC)c(N=[N+]=[N-])cc2OC)cc1 [Compound 64, N-(3-((N-(4-azido-2,5-dimethoxyphenyl)-4-ethoxyphenyl)sulfonamido)propyl)-5-((3aR,4R,6aS)-2-oxohexahydro-1H-thieno[3,4-d]imidazol-4-yl) pentanamide] | – | relatively weak activity | – | 73.8% | – | 140% | 162% | – | – | – |
| – | – | N-(9-(2-carboxy-44(34(N-(4-chloro-2,5-dimethoxyphenyl)-4-ethoxyphenyl)sulfonamido)propyl)carbamoyl)phenyl)-6-(diethylamino)-3H-xanthen-3-ylidene)-N-ethylethanaminium [Compound 57] | – | reduced activity compared to compound 1 | – | 76.9% | – | 123% | 111% | – | – | – |
